From US10689378B2, “Triazolopyridine compounds and uses thereof” (Novartis AG, priority 2016, dated 2020)
Where two headings read alike, the source gives them in different places.

What was measured:
EED (1-441)-His protein = molecular target: T1, EED (1-441)-His protein (Homo sapiens, UniProt O75530); test: EED-H3K27Me3 peptide competition binding assay by AlphaScreen; conditions: read-out: (a) IC50 EED Alphascreen binding Qualified
T1 construct: 30 nM EED (1-441)-His protein
Outline: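 Serially diluted compound (12 points, 3-fold) incubated 20 min with 30 nM EED(1-441)-His and 15 nM biotin-H3K27Me3(19-33) peptide in 25 mM HEPES pH 8, 0.02% Tween-20, 0.5% BSA. Ni-chelate acceptor/streptavidin donor beads (10 μg/mL each) added, 1 h rt dark; 615 nm emission normalized to controls, dose-response fit for IC50.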

[1] = molecular target: wild type PRC2 (wtPRC2) complex (Homo sapiens, UniProt O75530); test: EED LC-MS assay (SAH production by PRC2); type: biochemical; conditions: read-out: (b) IC50 EED LC-MS Qualified
Outline: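 Pentameric PRC2 (EZH2, SUZ12, EED, Rbap48, AEBP), 12 nM final, preincubated 20 min with compound and SAM, then 1.5 μM biotinylated H3K27me0 peptide, 1 μM SAM, pH 8.0, 120 min at rt. SAH quantified by LC-MS/MS with d4-SAH; control-normalized activity fitted for IC50.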

[2] = tested on: H3K27 methylation in G401 cell; test: ELISA (H3K27 methylation) assay in G401 cells; type: cell-based, human; conditions: Homo sapiens
Outline: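 G401 cells treated 48 h with 3-fold dilutions (8 or 12 points, top 20 μM). Acid-extracted histones probed by ELISA for H3K27me3 or H3K27me2 with ECL readout, normalized to total H3. Percent inhibition versus DMSO fitted to dose-response curve for IC50.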

[3] = EED-H3K27Me3 peptide competition, AlphaScreen
[4] = G-401, H3K27 methylation ELISA, read-out: (c) IC50 ELISA Qualified
[5] = G-401, read-out: (c) IC50 ELISA Qualified

Chain of wild type PRC2 (wtPRC2) complex (O75530 whole entry): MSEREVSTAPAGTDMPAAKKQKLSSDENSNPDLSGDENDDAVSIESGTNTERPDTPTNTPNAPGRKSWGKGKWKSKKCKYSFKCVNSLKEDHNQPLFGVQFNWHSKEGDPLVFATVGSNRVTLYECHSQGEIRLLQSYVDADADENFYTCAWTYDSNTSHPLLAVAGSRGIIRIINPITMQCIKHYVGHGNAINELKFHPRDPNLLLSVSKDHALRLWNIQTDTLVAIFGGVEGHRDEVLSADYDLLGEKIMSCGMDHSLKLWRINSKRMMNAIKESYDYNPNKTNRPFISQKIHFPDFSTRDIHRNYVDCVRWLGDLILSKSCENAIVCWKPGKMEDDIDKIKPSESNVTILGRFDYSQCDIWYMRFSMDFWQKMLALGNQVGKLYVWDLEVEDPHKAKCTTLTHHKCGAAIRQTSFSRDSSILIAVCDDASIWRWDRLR
Chain of wild type PRC2 (wtPRC2) complex (Q15910 whole entry partner): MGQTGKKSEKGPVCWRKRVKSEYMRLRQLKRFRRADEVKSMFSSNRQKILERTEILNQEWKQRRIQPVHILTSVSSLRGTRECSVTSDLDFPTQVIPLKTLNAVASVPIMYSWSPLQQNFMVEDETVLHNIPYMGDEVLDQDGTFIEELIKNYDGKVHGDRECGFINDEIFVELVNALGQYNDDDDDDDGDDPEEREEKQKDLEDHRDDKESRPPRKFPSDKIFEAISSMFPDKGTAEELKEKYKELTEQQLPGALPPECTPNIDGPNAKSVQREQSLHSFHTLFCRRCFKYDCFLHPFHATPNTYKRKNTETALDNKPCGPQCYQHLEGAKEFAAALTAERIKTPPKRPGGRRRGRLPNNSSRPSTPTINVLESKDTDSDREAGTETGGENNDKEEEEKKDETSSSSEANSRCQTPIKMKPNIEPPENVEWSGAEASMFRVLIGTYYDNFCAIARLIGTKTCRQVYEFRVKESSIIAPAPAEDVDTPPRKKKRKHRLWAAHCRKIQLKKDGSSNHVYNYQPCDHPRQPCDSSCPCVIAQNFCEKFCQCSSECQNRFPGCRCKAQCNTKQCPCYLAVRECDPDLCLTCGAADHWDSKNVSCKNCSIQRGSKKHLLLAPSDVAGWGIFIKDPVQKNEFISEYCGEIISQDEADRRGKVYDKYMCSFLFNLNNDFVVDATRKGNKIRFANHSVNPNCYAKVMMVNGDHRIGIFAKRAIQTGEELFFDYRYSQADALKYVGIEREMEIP
Chain of wild type PRC2 (wtPRC2) complex (Q15022 whole entry partner): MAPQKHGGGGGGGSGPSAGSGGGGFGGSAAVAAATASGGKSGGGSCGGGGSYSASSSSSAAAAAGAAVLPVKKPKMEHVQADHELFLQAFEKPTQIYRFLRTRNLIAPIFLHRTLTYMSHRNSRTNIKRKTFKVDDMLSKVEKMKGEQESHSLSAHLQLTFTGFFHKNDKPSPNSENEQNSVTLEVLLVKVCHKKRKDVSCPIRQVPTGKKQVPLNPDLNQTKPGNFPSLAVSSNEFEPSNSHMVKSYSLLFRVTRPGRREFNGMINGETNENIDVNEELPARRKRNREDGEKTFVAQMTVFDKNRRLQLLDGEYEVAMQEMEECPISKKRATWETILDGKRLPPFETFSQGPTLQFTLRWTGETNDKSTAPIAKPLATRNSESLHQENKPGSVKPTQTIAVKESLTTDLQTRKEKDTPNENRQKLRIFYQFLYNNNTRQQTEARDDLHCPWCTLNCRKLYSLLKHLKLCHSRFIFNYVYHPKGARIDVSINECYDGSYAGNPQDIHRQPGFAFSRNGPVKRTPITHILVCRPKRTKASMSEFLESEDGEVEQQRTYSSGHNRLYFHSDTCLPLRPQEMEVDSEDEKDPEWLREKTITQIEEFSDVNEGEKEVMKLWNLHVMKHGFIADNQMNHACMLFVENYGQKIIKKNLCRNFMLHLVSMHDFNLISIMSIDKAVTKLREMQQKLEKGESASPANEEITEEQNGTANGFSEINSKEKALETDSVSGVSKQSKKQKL
Chain of wild type PRC2 (wtPRC2) complex (Q09028 whole entry partner): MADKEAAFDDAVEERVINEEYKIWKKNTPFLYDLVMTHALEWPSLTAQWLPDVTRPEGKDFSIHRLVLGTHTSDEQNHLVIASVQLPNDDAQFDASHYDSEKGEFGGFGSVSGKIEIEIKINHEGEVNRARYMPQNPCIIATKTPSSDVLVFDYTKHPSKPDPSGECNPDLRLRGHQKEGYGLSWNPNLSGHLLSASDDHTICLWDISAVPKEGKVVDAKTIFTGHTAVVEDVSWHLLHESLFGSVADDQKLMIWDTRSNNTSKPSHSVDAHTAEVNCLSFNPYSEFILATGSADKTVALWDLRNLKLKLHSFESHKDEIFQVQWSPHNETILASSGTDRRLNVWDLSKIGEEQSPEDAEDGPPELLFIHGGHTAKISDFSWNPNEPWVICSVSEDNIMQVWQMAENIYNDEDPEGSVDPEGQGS
Chain of wild type PRC2 (wtPRC2) complex (Q6ZN18 whole entry partner): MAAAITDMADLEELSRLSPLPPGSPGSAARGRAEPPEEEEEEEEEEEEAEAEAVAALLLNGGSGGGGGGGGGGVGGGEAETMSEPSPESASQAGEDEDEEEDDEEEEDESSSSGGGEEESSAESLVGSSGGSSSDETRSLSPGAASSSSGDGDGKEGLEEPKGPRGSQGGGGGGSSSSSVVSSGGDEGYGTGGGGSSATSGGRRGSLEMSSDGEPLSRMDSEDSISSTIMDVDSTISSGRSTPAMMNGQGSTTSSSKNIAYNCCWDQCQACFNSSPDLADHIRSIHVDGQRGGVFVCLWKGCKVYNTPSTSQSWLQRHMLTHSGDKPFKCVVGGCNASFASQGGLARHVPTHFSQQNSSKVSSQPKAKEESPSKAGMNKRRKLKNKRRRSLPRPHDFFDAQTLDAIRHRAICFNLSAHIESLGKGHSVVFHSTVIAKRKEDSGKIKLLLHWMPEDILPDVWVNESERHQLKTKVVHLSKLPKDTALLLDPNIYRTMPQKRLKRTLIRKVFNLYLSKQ
T1 sequence (O75530 whole entry): as the sequence (O75530 whole entry) above

IC50 (EED (1-441)-His protein; [3]) [nM]	IC50 ([1]; PRC2 LC-MS assay) [nM]	IC50 [2, 4] [nM]	IC50 (EED (1-441)-His protein) [nM]	IC50 [1] [nM]	IC50 [2, 5] [nM]	Compound
73.5	284	76.3				COc1ncccc1CNc1ccc(-c2cccnc2C)c2nncn12 [Example 328, N-((2-methoxypyridin-3-yl)methyl)-8-(2-methylpyridin-3-yl)-[1,2,4]triazolo[4,3-a] pyridin-5-amine]
31.1	1360	48				COc1cc(F)cc(F)c1CNc1ccc(-c2cnc(C)cc2C)c2nncn12 [Example 329, N-(2,4-difluoro-6-methoxybenzyl)-8-(4,6-dimethylpyridin-3-yl)-[1,2,4]triazolo [4,3-a]pyridin-5-amine]
24	96.2	24				COc1cccc(F)c1CNc1ccc(-c2cn(C)nc2CO)c2nncn12 [Example 330, (4-(5-((2-fluoro-6-methoxy benzyl)amino)-[1,2,4]triazolo[4,3-a]pyridin-8-yl)-1-methyl-1H-pyrazol-3-yl) methanol]
8.2	26.6	7.3				COc1cccc(F)c1CNc1ccc(-c2cnc(OC(C)C)nc2C)c2nncn12 [Example 332, N-(2-fluoro-6-methoxybenzyl)-8-(2-isopropoxy-4-methylpyrimidin-5-yl)-[1,2,4] triazolo[4,3-a]pyridin-5-amine]
95.1	286	67.6				COc1c(F)ccc(F)c1CNc1ccc(-c2cnc(C)nc2C)c2nncn12 [Example 333, N-(3,6-difluoro-2-methoxybenzyl)-8-(2,4-dimethylpyrimidin-5-yl)-[1,2,4] triazolo[4,3-a]pyridin-5-amine]
38	144	31.6				COc1c(F)ccc(F)c1CNc1ccc(-c2ccc(S(C)(=O)=O)nc2C)c2nncn12 [Example 334, N-(3,6-difluoro-2-methoxybenzyl)-8-(2-methyl-6-(methylsulfonyl)pyridin-3-yl)-[1,2,4]triazolo[4,3-a] pyridin-5-amine]
84.5	254	318				COc1cccc(Cl)c1CNc1ccc(-c2cccnc2C)c2nncn12 [Example 335, N-(2-chloro-6-methoxybenzyl)-8-(2-methylpyridin-3-yl)-[1,2,4]triazolo[4,3-a] pyridin-5-amine]
12.8	59.5	12.1				COc1cccc(F)c1CNc1ccc(-c2cnn(C)c2CO)c2nncn12 [Example 336, (4-(5-((2-fluoro-6-methoxy benzyl)amino)-[1,2,4]triazolo[4,3-a]pyridin-8-yl)-1-methyl-1H-pyrazol-5-yl) methanol]
23.8	166	43.1				COc1cccc(F)c1CNc1ccc(-c2cc(C)ncc2C(F)F)c2nncn12 [Example 337, 8-(5-(difluoromethyl)-2-methylpyridin-4-yl)-N-(2-fluoro-6-methoxybenzyl)-[1,2,4]triazolo[4,3-a]pyridin-5-amine]
7.4	42.1	16.2				COc1cccc(F)c1CNc1ccc(-c2c(Cl)ccnc2C)c2nncn12 [Example 338, 8-(4-chloro-2-methylpyridin-3-yl)-N-(2-fluoro-6-methoxybenzyl)-[1,2,4]triazolo[4,3-a] pyridin-5-amine]
6	20.9	6.7				COc1cccc(F)c1CNc1ccc(-c2ccc(CC#N)nc2C)c2nncn12 [Example 339, 2-(5-(5-((2-fluoro-6-methoxybenzyl)amino)-[1,2,4]triazolo[4,3-a]pyridin-8-yl)-6-methylpyridin-2-yl) acetonitrile]
12.5	523	25.5				COc1cccc(F)c1CNc1ccc(-c2cccnc2C#N)c2nncn12 [Example 340, 3-(5-((2-fluoro-6-methoxybenzyl)amino)-[1,2,4]triazolo[4,3-a]pyridin-8-yl) picolinonitrile]
21.6	95.5	21.9				COc1cccc(F)c1CNc1ccc(-c2cccnc2CC#N)c2nncn12 [Example 341, 2-(3-(5-((2-fluoro-6-methoxybenzyl)amino)-[1,2,4]triazolo[4,3-a]pyridin-8-yl)pyridin-2-yl)acetonitrile]
25.7	492	36.5				CCOc1ncc(-c2ccc(NCc3c(F)cc(F)cc3OC)n3cnnc23)c(C)n1 [Example 343, N-(2,4-difluoro-6-methoxybenzyl)-8-(2-ethoxy-4-methylpyrimidin-5-yl)-[1,2,4]triazolo[4,3-a]pyridin-5-amine]
7.6	24.5	10.4				COc1cccc(F)c1CNc1ccc(-c2cnccc2CO)c2nncn12 [Example 345, (3-(5-((2-fluoro-6-methoxy benzyl)amino)-[1,2,4]triazolo[4,3-a]pyridin-8-yl)pyridin-4-yl)methanol]
			85.1	209	45.5	COc1ncccc1CNc1ccc(-c2cnc(C)nc2C)c2nncn12 [Example 348, 8-(2,4-dimethylpyrimidin-5-yl)-N-((2-methoxypyridin-3-yl)methyl)-[1,2,4]triazolo [4,3-a]pyridin-5-amine]
			22.9	291	31.2	COc1cc(F)cc(F)c1CNc1ccc(-c2cnc(OC(C)C)nc2C)c2nncn12 [Example 349, N-(2,4-difluoro-6-methoxybenzyl)-8-(2-isopropoxy-4-methylpyrimidin-5-yl)-[1,2,4]triazolo[4,3-a]pyridin-5-amine]
			32.2	45.4	16.4	COc1cccc(F)c1CNc1ccc(-c2cc(C#N)cnc2C)c2nncn12 [Example 350, 5-(5-((2-fluoro-6-methoxybenzyl)amino)-[1,2,4]triazolo[4,3-a]pyridin-8-yl)-6-methylnicotinonitrile]
			23.4	22.9	15.5	COc1cccc(F)c1CNc1ccc(-c2ccc(C(C)C)nc2C)c2nncn12 [Example 351, N-(2-fluoro-6-methoxybenzyl)-8-(6-isopropyl-2-methylpyridin-3-yl)-[1,2,4]triazolo[4,3-a]pyridin-5-amine]
			29.5	106	32	COc1cccc(F)c1CNc1ccc(-c2cnc(C(C)C)cc2C)c2nncn12 [Example 352, N-(2-fluoro-6-methoxybenzyl)-8-(6-isopropyl-4-methylpyridin-3-yl)-[1,2,4] triazolo[4,3-a]pyridin-5-amine]
			25.8	156	39.3	COc1cccc(F)c1CNc1ccc(-n2cc(C)cn2)c2nncn12 [Example 353, N-(2-fluoro-6-methoxybenzyl)-8-(4-methyl-1H-pyrazol-1-yl)-[1,2,4]triazolo [4,3-a]pyridin-5-amine]
			26.1	60.6	21.4	COc1cccc(F)c1CNc1ccc(-n2cnc(C)c2)c2nncn12 [Example 354, N-(2-fluoro-6-methoxybenzyl)-8-(4-methyl-1H-imidazol-1-yl)-[1,2,4]triazolo [4,3-a]pyridin-5-amine]
			15.8	30.5	11.7	COc1cccc(F)c1CNc1ccc(-c2nc(C)nn2C)c2nncn12 [Example 355, 8-(1,3-dimethyl-1H-1,2,4-triazol-5-yl)-N-(2-fluoro-6-methoxybenzyl)-[1,2,4] triazolo[4,3-a]pyridin-5-amine]
			19	117	14	COc1cccc(F)c1CNc1ccc(-c2ncnn2C)c2nncn12 [Example 356, N-(2-fluoro-6-methoxybenzyl)-8-(1-methyl-1H-1,2,4-triazol-5-yl)-[1,2,4] triazolo[4,3-a]pyridin-5-amine]
			25.6	144	38.9	COc1cccc(F)c1CNc1ccc(-n2cccn2)c2nncn12 [Example 357, N-(2-fluoro-6-methoxybenzyl)-8-(1H-pyrazol-1-yl)-[1,2,4]triazolo[4,3-a]pyridin-5-amine]
			17.1	286	19.5	COc1cccc(F)c1CNc1ccc(-n2cncn2)c2nncn12 [Example 358, N-(2-fluoro-6-methoxybenzyl)-8-(1H-1,2,4-triazol-1-yl)-[1,2,4]triazolo[4,3-a] pyridin-5-amine]
			42.9	274	55.1	COc1cccc(F)c1CNc1ccc(-n2ccc(C)n2)c2nncn12 [Example 359, N-(2-fluoro-6-methoxybenzyl)-8-(3-methyl-1H-pyrazol-1-yl)-[1,2,4]triazolo [4,3-a]pyridin-5-amine]
			15.1	69.6	21.1	COc1cccc(F)c1CNc1ccc(-n2ccnn2)c2nncn12 [Example 361, N-(2-fluoro-6-methoxybenzyl)-8-(1H-1,2,3-triazol-1-yl)-[1,2,4]triazolo[4,3-a] pyridin-5-amine]
